Patent US10829448B2, “Substituted benzoimidazoles as modulators of ROR-γ” (Vitae Pharmaceuticals, LLC, priority 2015, dated 2020)

Experiments:
[1] = biological target: full-length RORγt in Jurkat cells (Homo sapiens (Human), UniProt P51449); assay: RORγt 5×RORE Assay in Jurkat Cells (Assay 2); assay type: cell-based; conditions: RORγt 5×RORE Nanoluc luciferase reporter
Procedure: [formula] RORγt 5×RORE Assay in Jurkat Cells (Assay 2)
Compounds described herein were tested for RORγ inverse agonist activity in a cell-based, transcriptional activity assay. […] (Promega, Cat. # N1021) using KpnI and HindIII restriction sites. […] Tested compounds were added to the cells in the same media (final concentration of DMSO was 0.1% (v/v)), and the plates were incubated at 37° C./5% CO2 for 16-18 hrs. Luciferase activity in the conditioned supernatants was determined with NanoGlo® assay reagents (Promega, Cat. # N1130).

[2] = biological target: recombinant RORγ Ligand Binding Domain (LBD) protein (Homo sapiens (Human), UniProt P51449); assay: Radio-Ligand RORγ Binding Assay (Assay 1); conditions: competition with 25-hydroxy [26,27-3H]-cholesterol, SPA
Procedure: Radio-Ligand RORγ Binding Assay (Assay 1)
Compounds described herein were tested for ability to bind to RORγ in a cell-free competition assay with commercially available radio-ligand (RL), 25-hydroxy [26,27-^3H]-cholesterol (PerkinElmer, Cat. # NET674250UC), for a ligand binding site on a recombinant RORγ Ligand Binding Domain (LBD) protein expressed as a 6×His-Glutathione-S-Transferase (GST) fusion. […] The plate was shaken at 700 rpm for 20 min and incubated for 10 min at rt, after which 40 μL of poly-Lys YSi SPA beads (PerkinElmer, Cat. # RPNQ0010) were added to achieve 50 μg of the beads per well. The plate was incubated on an orbital shaker for 20 min and then for 10 min without agitation at rt. SPA signal for tritium beta radiation was registered on PerkinElmer Microbeta plate reader. […] The percent inhibition vs. concentration data were fit into a four-parameter model, and IC50 values were calculated from the fit as the concentrations corresponding to the inflection points on the dose-response curves.

Chain of recombinant RORγ Ligand Binding Domain (LBD) protein (P51449 269-508): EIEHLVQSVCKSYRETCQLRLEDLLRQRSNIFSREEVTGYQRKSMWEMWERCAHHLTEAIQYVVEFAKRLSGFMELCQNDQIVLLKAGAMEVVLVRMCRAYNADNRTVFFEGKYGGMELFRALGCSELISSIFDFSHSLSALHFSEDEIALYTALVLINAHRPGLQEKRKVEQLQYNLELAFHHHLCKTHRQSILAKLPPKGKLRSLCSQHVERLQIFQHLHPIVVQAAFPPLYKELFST
Chain of full-length RORγt in Jurkat cells (P51449 other isoform, or with tags, fused parts or gaps): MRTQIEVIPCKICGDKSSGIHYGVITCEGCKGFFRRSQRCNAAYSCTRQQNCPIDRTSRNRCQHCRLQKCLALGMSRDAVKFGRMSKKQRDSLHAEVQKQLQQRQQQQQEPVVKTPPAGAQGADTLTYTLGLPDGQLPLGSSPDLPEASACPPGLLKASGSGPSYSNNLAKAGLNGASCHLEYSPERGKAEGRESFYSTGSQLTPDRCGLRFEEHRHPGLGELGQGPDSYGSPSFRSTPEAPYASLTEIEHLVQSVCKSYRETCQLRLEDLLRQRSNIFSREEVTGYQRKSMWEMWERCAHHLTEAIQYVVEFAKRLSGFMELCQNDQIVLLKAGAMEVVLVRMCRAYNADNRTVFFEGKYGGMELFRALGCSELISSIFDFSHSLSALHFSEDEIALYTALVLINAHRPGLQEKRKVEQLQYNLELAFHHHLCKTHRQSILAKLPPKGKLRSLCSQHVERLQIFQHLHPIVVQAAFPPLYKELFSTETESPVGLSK

Structure (SMILES) | IC50 [1] | Ki [2]
CCS(=O)(=O)c1ccc([C@H](CO)NC(=O)c2ccc3c(c2)nc(C(=O)c2ccc(C(F)(F)F)cc2)n3C2CC2)cc1 [BE-61, (R)-1-cyclopropyl-N-(1-(4-(ethylsulfonyl)phenyl)-2-hydroxyethyl)-2-(4-(trifluoromethyl)benzoyl)-1H-benzo[d]imidazole-5-carboxamide] | < 100 nM | < 100 nM
CCS(=O)(=O)c1ccc([C@H](COC(N)=O)NC(=O)c2ccc3c(c2)nc(C[C@H]2CC[C@H](C(F)(F)F)CC2)n3C2CC2)cc1 [BE-66, (R)-2-(1-cyclopropyl-2-(((1r,4R)-4-(trifluoromethyl)cyclohexyl)methyl)-1H-benzo[d]imidazole-5-carboxamido)-2-(4-(ethylsulfonyl)phenyl)ethyl carbamate] | < 100 nM | < 100 nM
CCS(=O)(=O)c1ccc([C@@H](COC(N)=O)NC(=O)c2ccc3c(c2)nc(C[C@H]2CC[C@H](C(F)(F)F)CC2)n3C2CC2)cc1 [BE-67, (S)-2-(1-cyclopropyl-2-(((1r,4S)-4-(trifluoromethyl)cyclohexyl)methyl)-1H-benzo[d]imidazole-5-carboxamido)-2-(4-(ethylsulfonyl)phenyl)ethyl carbamate] | < 100 nM | < 100 nM
CCn1c(C[C@H]2CC[C@@H](C(F)(F)F)CC2)cc2cc(C(=O)NCc3ccc(S(=O)(=O)CC)cn3)ccc21 [IN-15.2, 1-ethyl-N-((5-(ethylsulfonyl)pyridin-2-yl)methyl)-2-(((1s,4s)-4-(trifluoromethyl)cyclohexyl)methyl)-1H-indole-5-carboxamide] | > 1000 nM | < 100 nM
CCn1c(C[C@H]2CC[C@@H](C(F)(F)F)CC2)cc2cc(C(=O)N[C@@H](CO)c3ccc(S(=O)(=O)CC)cc3)ccc21 [IN-16.2, 1-ethyl-N-((R)-1-(4-(ethylsulfonyl)phenyl)-2-hydroxyethyl)-2-(((1s,4S)-4-(trifluoromethyl)cyclohexyl)methyl)-1H-indole-5-carboxamide] | > 1000 nM | < 100 nM
CCn1c(C[C@H]2CC[C@@H](C(F)(F)F)CC2)cc2cc(C(=O)NCc3ccc(S(=O)(=O)CC)cc3)ccc21 [IN-17.2, 1-ethyl-N-(4-(ethylsulfonyl)benzyl)-2-(((1s,4s)-4-(trifluoromethyl)cyclohexyl)methyl)-1H-indole-5-carboxamide] | > 1000 nM | < 100 nM
